The subject of one test is E. coli. The experiment in a line: Second study, disk clearance zone, E. coli. The test is classed as cell-based. The conditions noted are these: Escherichia coli; 30 μg/disk.
The next test concerns Staphylococcus aureus. The experiment in a line: Second study, disk clearance zone, Staphylococcus aureus. The test is classed as cell-based. The conditions noted are these: 30 μg/disk. The text has this:
Determination of the antimicrobial activity of the composition. The sensitivity of Propionbacterium acnes a microorganism associated with acne and other skin infections (Nishijima, et al. (2000)), Staphylococcus aureus a bacterial strain found in infected wounds and skin eruptions including acne (Nishijima, et al. 1994)), Staphylococcus epidermidis a bacterial strain occurring in a variety of opportunistic bacterial skin infections and in acne (Nishijima, S. et al. (2000)) and Streptococcus mutans, a bacterial strain associated with the progression of dental caries (Sanchez-Perez, L. et al. (2001)), Candida albican, and Streptococcus epidermidis; to Coleus forskohlii oil using disk diffusion methodology was determined. One strain each of Propionbacterium acnes (ATCC 11827), Staphylococcus aureus (ATCC 29213), Streptococcus mutans (ATCC 25175), and Staphylococcus epidermidis (ATCC 14990) Candida albicans (ATCC 11006) and Streptococcus epidermidis (ATCC 14990) were obtained from ATCC. Propionbacterium acnes culture were grown in Reinforced Clostridia media under anaerobic conditions at 37° C. for 24 hours. Staphylococcus aureus, Streptococcus mutans and Staphylococcus epidermidis cultures were cultured in Trypticase Soy Broth under aerobic conditions at 37° C. for 24 hours. […] Inhibition zones were measured to the closest one tenth of one millimeter using a caliper. […]

`O=C(N[C@H](CO)[C@H](O)c1ccc([N+](=O)[O-])cc1)C(Cl)Cl` [Chloramphenicol]: the results for the zone of inhibition at 30 µg/disc in the test on E. coli and in the test on Staphylococcus aureus were 34 mm and 20 mm, respectively.

The record behind these values is patent publication US20020160066A1, “Composition and methods containing an antimicrobial essential oil extracted from Coleus forskohlii” (priority 2001, published 2002).
